{
  "source": "patent US11952610B2",
  "about": "“Digital microbiology” (priority 2016, dated 2024)",
  "key": {"[1]": {"tested_on": "usual foodborne mold strains", "experiment": "Inhibition of mold growth outside the droplet aqueous phase, antifungal in oil phase", "format": "cell-based", "conditions": "40 to 100 mg/L in the oil for EvaGreen, 28° C., 24 to 48 hours", "method": "(§1) Usual foodborne mold strains were grown until the sporulation state (usually for 5 to 7 days) on the appropriate culture medium at 28° C. Spores were then scraped into 0.05% Tween 80 sterile solution. The collected suspensions were filtered on several layers of gauze compressed to eliminate most of the hyphae and mycelium fragments. When necessary, the suspensions were kept under stirring in the dark and at room temperature before the filtration step to ensure optimal spore release from the fungal structures. The spore concentration was determined in a hemocytometer chamber and/or by plating on agar Petri plates.\n(§2) The suspensions were then centrifuged for 5 minutes at 10.000 rpm and the supernatants discarded. The pellets were resuspended with the appropriate volume of YGC broth containing 30% of glycerol and the aliquots were stored at −20° C. for up to 6 months.\n(§3) Aliquots were thawed at room temperature and washed once in YGC broth to remove glycerol. The spores were then diluted to the concentration of 10^5 spores/mL in YGC broth containing 5% of Pluronic F68 surfactant.\n(§4) Dicloran stock solution was prepared at 40 mg/mL in acetone. The stock solution was then diluted to produce working solutions according to table below.\n(§5) A volume of 10 μL of the appropriate working solution was then added to 2 mL of Oil for Eva Green to reach the targeted final concentrations (0.5% v/v) (see the table below).\n(§6) For droplet generation using the QX200™ Droplet generator, the ‘sample’ and ‘oil’ wells of a DG8 cartridge were respectively filled with […], of the prepared spore suspension (with or without CFDA) and 70 μL of the Oil for Eva Green (with or without Dicloran). After the generation process, the droplet emulsions (30-35 μL/well) were transferred to a 96-well Eppendorf plate and placed at 28° C. for 24 to 48 hours."}, "[2]": {"tested_on": "Mucor racemosus CECT 20821", "experiment": "Inhibition of mold growth outside the droplet aqueous phase, antifungal in oil phase", "format": "cell-based", "conditions": "YCG broth, 48 hours", "method": "as §1, §2, §3, §4, §5, §6"}, "[3]": {"tested_on": "Erotium rubrum CECT 20807", "experiment": "Inhibition of mold growth outside the droplet aqueous phase, antifungal in oil phase", "format": "cell-based", "method": "as §1, §2, §3, §4, §5, §6"}, "[4]": {"tested_on": "Fusarium graminearum DSM 1096", "format": "cell-based", "conditions": "100 mg/L in the oil phase, YCG broth, 48 hours"}, "[5]": {"tested_on": "Penicillium hirsutum ATCC 16025", "experiment": "Inhibition of mold growth outside the droplet aqueous phase, antifungal in oil phase", "format": "cell-based", "conditions": "80 mg/L in the oil phase, YCG broth, 24 hours"}, "[6]": {"tested_on": "Aspergillus restrictus CECT 20807", "experiment": "Inhibition of mold growth outside the droplet aqueous phase, antifungal in oil phase", "format": "cell-based", "conditions": "YCG broth"}, "bacteria or yeast": {"tested_on": "bacteria or yeast", "experiment": "Turbidity of a culture over time in the presence and absence of PI", "format": "cell-based", "conditions": "presence vs absence of PI", "method": "FIGS. 13A and 13B are a sample of SA+PI without FOX after 6 h of incubation. FIGS. 14A-14C are SA+PI+0.25 mg/L FOX after 6 h of incubation. FIGS. 15A-15C are SA+PI+0.5 mg/L FOX after 6 h of incubation. FIGS. 16A-16C are SA+PI+4 mg/L FOX after 6 h of incubation. PI is excluded from viable cells and penetrates the cell membranes of dead or dying cells. […] Intercalating agents are considered toxic for cell growth because they react with DNA, blocking the replication of the cells."}, "S. aureus ATCC®29213™ [7]": {"tested_on": "S. aureus ATCC®29213™", "conditions": "cited from earlier work"}, "S. aureus ATCC®43300™ [8]": {"tested_on": "S. aureus ATCC®43300™", "conditions": "cited from earlier work"}, "MRSA ATCC BAA 2312": {"tested_on": "MRSA ATCC BAA 2312", "experiment": "Droplets with labeled anti-PBP2a antibody, BSA +/- cefoxitin: growth and labeling", "format": "cell-based, Staphylococcus aureus", "conditions": "3 h at 37° C.", "method": "In another experiment, an anti-PBP2a antibody (Biosource clone M0071933) that recognizes PBP2a indicative of the resistance against methicillin in Staphylococcus aureus (SA) was labeled using Kit Lynx LNK174PETR (Abd Serotec). […] After incubation at 37° C. for 3 hours, the samples were read using the ZOE™ Fluorescent Cell Imager (Bio-Rad Laboratories). The tables below show growth (visible) and labeling (fluorescence) obtained for the tested strains of MSSA and MRSA."}, "S. aureus ATCC®43300™ [9]": {"tested_on": "S. aureus ATCC®43300™", "experiment": "Antimicrobial susceptibility testing in water-in-oil droplets, strain with or without induction of resistance", "conditions": "for MIC: Staphylococcus aureus", "quoted_text": "They comprised Escherichia coli (ATCC®25922™), Staphylococcus aureus (ATCC®29212™), Enterococcus faecalis (ATCC®29212™) and Candida albicans (ATCC®24433™). […] This strain is known to carry an heterogeneous resistance phenotype was also used with or without induction with cephalosporins.\nEach strain was stored as −80° C. frozen stock. Except when indicated, after overnight cultures in Trypto-casein-soy broth (TCS; Bio-Rad, Marnes 1a Coquette, France), all bacterial strains were started from the same adjusted turbidity which was equivalent to 1:100 of a 0.5 McFarland in TCS. For the Candida albicans, the starting turbidity was equivalent to a 1:10 of a 0.1 McFarland.\nDroplets were prepared according to the manufacturer instructions (Bio-Rad) using QX200™ Droplet Generation Oil for EvaGreen (+surfactant) with the mixing parameters adjusted for sample volume and approximate number of microorganisms. Turbidity adjusted cultures were diluted in aqueous-phase reagents with a known concentration of antibiotic or antifungal agents in a 1:1 ratio of TCS culture to aqueous phase reagents (v/v, 10 μL/10 μL).\nAs soon as the droplets were prepared, the cartridges, protected by an adhesive film, were directly incubated at 37° C. (at 30° C. for the C. albicans).\nAfter 4 and 6 hours of incubation, droplets were pipetted and introduced into cell counting slides (Bio-Rad). The microorganisms were then observed in the droplets using a microscope (objective 100× or 400×). The approximate counts of droplets carrying microorganisms as their growth inside the droplets were reported.\nThe minimal inhibitory concentration (MIC) was determined as the lowest concentration of an antimicrobial agent that prevents visible growth of a microorganism (i.e. a total absence of bacteria or a total absence of fungal growth observable in droplets using the microscope)."}, "S. aureus ATCC®29213™ [10]": {"tested_on": "S. aureus ATCC®29213™", "experiment": "Antimicrobial susceptibility testing in water-in-oil droplets, microscope reading", "format": "cell-based, Staphylococcus aureus", "conditions": "for Growth in droplets (observation in words): 2 mg/L", "method": "(at 30° C. for the C. albicans)."}},
  "note": "Where two headings read alike, the source gives them in different places.",
  "data": [
    {"smiles": "Nc1c(Cl)cc([N+](=O)[O-])cc1Cl", "note": "[dicloran, 2,6-dichloro-4-nitroaniline]", "values": [
      {"measurement": "Hyphae spreading and mold growth outside the droplet", "setting": "[1]", "value": "the hyphae spreading was inhibited and mold growth was confined within the droplet"},
      {"measurement": "Mold growth outside the aqueous phase", "setting": "[2]; 40 mg/L in the oil phase", "value": "inhibition of mold growth outside the aqueous phase"},
      {"measurement": "Mold growth outside the aqueous phase", "setting": "[2]; 60 mg/L in the oil phase", "value": "inhibition of mold growth outside the aqueous phase"},
      {"measurement": "Mold growth outside the aqueous phase", "setting": "[3]; 60 mg/L in the oil phase, YCG broth, 24 hours", "value": "inhibition of mold growth outside the aqueous phase"},
      {"measurement": "Mold growth outside the aqueous phase", "setting": "[3]; 80 mg/L in the oil phase, 5,6 carboxyfluorescein diacetate (25 mg/L) in the broth", "value": "inhibition of Erotium rubrum CECT 20807 growth outside the aqueous phase"},
      {"measurement": "Mold growth outside the aqueous phase", "setting": "[3]; 80 mg/L in the oil phase, YCG broth, 48 hours", "value": "inhibition of mold growth outside the aqueous phase"},
      {"measurement": "Mold growth outside the aqueous phase", "setting": "[4]", "value": "inhibition of mold growth outside the aqueous phase"},
      {"measurement": "Mold growth outside the aqueous phase", "setting": "[5]", "value": "inhibition of mold growth outside the aqueous phase"},
      {"measurement": "Mold growth outside the aqueous phase", "setting": "[6]; 80 mg/L in the oil phase, 24 hours", "value": "inhibition of mold growth outside the aqueous phase"},
      {"measurement": "Mold growth outside the aqueous phase", "setting": "[6]; 100 mg/L in the oil phase, 48 hours", "value": "inhibition of mold growth outside the aqueous phase"}
    ]},
    {"smiles": "CC[N+](C)(CC)CCC[n+]1c(-c2ccccc2)c2cc(N)ccc2c2ccc(N)cc21.[I-].[I-]", "note": "[PI, propidium iodide]", "values": [
      {"measurement": "Impact on growth of bacteria or yeast", "setting": "bacteria or yeast", "value": "only a limited impact"}
    ]},
    {"smiles": "CO[C@@]1(NC(=O)Cc2cccs2)C(=O)N2C(C(=O)O)=C(COC(N)=O)CS[C@@H]21", "note": "[Cefoxitin]", "values": [
      {"measurement": "Expected MIC (CLSI)", "setting": "S. aureus ATCC®29213™ [7]", "value": "1 to 4", "unit": "mg/L"},
      {"measurement": "Expected MIC (JCM)", "setting": "S. aureus ATCC®43300™ [8]", "value": "16 to 32", "unit": "mg/L"},
      {"measurement": "Growth (visible)", "setting": "MRSA ATCC BAA 2312; BSA 0 + FOX 2 mg/L", "value": "Growth +<"},
      {"measurement": "Growth (visible)", "setting": "MRSA ATCC BAA 2312; BSA 2.5% + FOX 2 mg/L", "value": "Growth +>"},
      {"measurement": "Growth in droplets (observation in words)", "setting": "S. aureus ATCC®43300™ [9]; 4 mg/L, 4 h w/o induction", "value": "No growth"},
      {"measurement": "Growth in droplets (observation in words)", "setting": "S. aureus ATCC®43300™ [9]; 4 mg/L, 4 h with induction", "value": "Limited growth"},
      {"measurement": "Growth in droplets (observation in words)", "setting": "S. aureus ATCC®43300™ [9]; 4 mg/L, 6 h w/o induction", "value": "Limited growth (few"},
      {"measurement": "Growth in droplets (observation in words)", "setting": "S. aureus ATCC®43300™ [9]; 4 mg/L, 6 h with induction", "value": "Limited growth"},
      {"measurement": "Growth in droplets (observation in words)", "setting": "S. aureus ATCC®43300™ [9]; 8 mg/L, 4 h with induction", "value": "Limited growth in few"},
      {"measurement": "Growth in droplets (observation in words)", "setting": "S. aureus ATCC®43300™ [9]; 8 mg/L, 6 h w/o induction", "value": "No growth"},
      {"measurement": "Growth in droplets (observation in words)", "setting": "S. aureus ATCC®43300™ [9]; 8 mg/L, 6 h with induction", "value": 1, "unit": "droplet with cells"},
      {"measurement": "Growth in droplets (observation in words)", "setting": "S. aureus ATCC®43300™ [9]; 16 mg/L, 4 h with induction", "value": "Very limited growth"},
      {"measurement": "Growth in droplets (observation in words)", "setting": "S. aureus ATCC®43300™ [9]; 16 mg/L, 6 h with induction", "value": "No growth"},
      {"measurement": "Growth in droplets (observation in words)", "setting": "S. aureus ATCC®43300™ [9]; 32 mg/L, 4 h with induction", "value": "No growth"},
      {"measurement": "MIC", "setting": "S. aureus ATCC®43300™ [9]; ATCC43300, read-out: Observed MIC, using non induced strain", "value": "2 to 4", "unit": "µg/mL"},
      {"measurement": "MIC", "setting": "S. aureus ATCC®43300™ [9]; ATCC43300, read-out: Observed MIC, with induced strain", "value": "16 to 32", "unit": "µg/mL"},
      {"measurement": "Growth in % of droplets", "setting": "S. aureus ATCC®29213™ [10]; 0.5 mg/L, reading time 4 h", "value": "20-30% of droplets"},
      {"measurement": "Growth in % of droplets", "setting": "S. aureus ATCC®29213™ [10]; 1 mg/L, reading time 4 h", "value": "~20% of droplets"},
      {"measurement": "Growth in % of droplets", "setting": "S. aureus ATCC®29213™ [10]; 1 mg/L, reading time 6 h", "value": "Growth in <50% of"},
      {"measurement": "Growth in droplets (observation in words)", "setting": "S. aureus ATCC®29213™ [10]; reading time 4 h", "value": "No growth"},
      {"measurement": "Growth in droplets (observation in words)", "setting": "S. aureus ATCC®29213™ [10]; reading time 6 h", "value": "No growth"},
      {"measurement": "MIC", "setting": "S. aureus ATCC®29213™ [10]; Staphylococcus aureus, ATCC29213, droplets at 37° C., read after 4 and 6 h, read-out: Observed MIC", "value": 2, "unit": "µg/mL"}
    ]}
  ]
}
